Patent publication US12194033B2, “Glycine receptor modulators and methods of use” (University of Pittsburgh—Of the Commonwealth System of …, priority 2017, dated 2025)

Key:
[1] = test system: CD1 mice; assay: Hargreaves test under CFA-induced hyperalgesic conditions in CD1 mice; format: in vivo; settings: for response time for paw withdrawal compared to vehicle: 0.1 mg/kg, CD1 mice, CFA-induced hyperalgesic conditions
Method: Under CFA-induced hyperalgesic conditions, the maximum possible effect, % MPE=(response−baseline)/(cut-off time−baseline), was measured for the application of compound 1 alone (0.05 mg/kg, blue, n=12; 0.01 mg/kg, orange, n=4), morphine alone (0.1 mg/kg, green, n=8), and compound 1 with morphine at three different dosage combinations: 0.05 mg/kg compound 1 with 0.1 mg/kg morphine (light blue, n=6), 0.01 mg/kg compound 1 with 0.1 mg/kg morphine (pink, n=10), and 0.01 mg/kg compound 1 with 0.01 mg/kg morphine (red, n=4). […] Error bars designate the standard error of the mean.
0.05 mg/kg compound 1 was tested for tolerance in CFA-treated mice (red). Under CFA-induced hyperalgesic conditions (24 hours post-application of CFA), 0.05 mg/kg compound 1 was administered to CD1 mice and responses to the Hargreaves test were measured immediately after the initial injection (application time=0) and again after a repeated dose given 1.5 hours (FIG. 7A) or 24 hours (FIG. 7B) after the effects of the first dose wore off. The black circles represent the responses of naïve mice (i.e., no administration of compound 1 or CFA), and the red circles represent the responses of mice receiving compound 1 under CFA-induced hyperalgesic conditions. […] Error bars designate the standard error of the mean (n=4).
Responses of CD1 mice to the Hargreaves test were assessed after application of 0.1 mg/kg of the indicated compounds (black) or vehicle (white) under CFA-induced hyperalgesic conditions as shown in FIGS. 8A-8H. The assessed compounds were compounds 1 (8A), 2 (8B), 3 (8C), 4 (8D), 5 (8E), 6 (8F), 7 (8G), and 8 (8H). […] Error bars designate the standard error of the mean (n≥4).
Dose response curves from the Hargreaves test in mice with a CFA-inflamed left hind paw at 1.5 and 2 hr after intraperitoneal injection of compound 1. Percent Maximum Possible Effect (% MPE) was calculated from paw withdrawal latencies.
Tolerance to compound 1 (MJPY1) and compound 3 (MJPY2) was measured by repeated dosing in the Hargreaves Test. […] Mice (n=6/group) received repeated i.p. injections of vehicle or 0.1 mg/kg compound 1 (MJPY1) or compound 3 (MJPY2) once a day for 5 days. CFA inflammation was induced on day 4, and PWL was measured 0.5 hr before and every 10 min after treatment on day 5. Data were binned to 30-min blocks (mean±SEM).

[2] = test system: mice; assay: Two-plate thermal preference test (30° C. vs 55° C.); format: in vivo; settings: for percentage of inactive time on the hot plate (55° C.): CD1 mice, CFA, vs naïve
Method: Responses to the two-plate thermal preference test were assessed under naïve conditions and 1 hour after administration of 0.2 mg/kg compound 1, 0.1 mg/kg morphine, or 0.2 mg/kg compound 1+0.1 mg/kg morphine. Unrestrained mice were exposed to plates set to normal and hot temperatures (30° C. and 55° C., respectively). Temperature preference was measured by percentage time spent on the hot plate (55° C.) over the course of 4 minutes, where 50% indicates no preference between the two temperatures. […] Error bars designate the standard error of the mean (n≥5).
Unrestrained mice were exposed to plates set to normal and hot temperatures (30° C. and 55° C., respectively) for 10 minutes. […] Error bars designate the standard error of the mean (n=4).
The percent inactivity on the 55° C. plate (mean±SEM) is a measure of heat tolerance. Significance was assessed by one-way ANOVA with LSD post-hoc test.

[3] = 0.1 mg/kg i.p., 1 hour after injection
[4] = 0.1 mg/kg i.p., 48 hours after injection

| Compound | response time for paw withdrawal compared to vehicle [1] | other results |
| --- | --- | --- |
| O=C(NCc1ccc(C(=O)N2CCCCC2)cc1)c1ccc2c3c(cccc13)CC2 [compound 2, N-{[4-(piperidine-1-carbonyl)phenyl]methyl}-1,2-dihydroacenaphthylene-5-carboxamide] | increase in the response time |  |
| NC(=O)CNC(=O)c1ccc(CNC(=O)c2ccc3c4c(cccc24)CC3)cc1 [compound 3, N-({4-[(carbamoylmethyl)-carbamoyl]phenyl}methyl)-1,2-dihydroacenaphthylene-5-carboxamide] | increase in the response time | percentage of inactive time on the hot plate (55° C.) [2, 3]: significantly increased; percentage of inactive time on the hot plate (55° C.) [2, 4]: significantly increased; analgesic action compared with morphine (percent inactivity on the 55° C. plate) ([2]; 0.1 mg/kg i.p., male CD1 mice, 24 hr after CFA, 1 hr after treatment, same dose): better than morphine; tolerance after repeated dosing (PWL) ([1]; 0.1 mg/kg i.p. once a day for 5 days, CFA on day 4): negligible tolerance |
| CN(C)C(=O)c1cccc(CNC(=O)c2ccc3c4c(cccc24)CC3)c1 [compound 4, N-[[3-(dimethylcarbamoyl)-phenyl]methyl]-1,2-dihydroacenaphthylene-5-carboxamide] | increase in the response time | percentage of inactive time on the hot plate (55° C.) [2, 3]: increase in the inactive time; percentage of inactive time on the hot plate (55° C.) [2, 4]: no effect |
| NC(=O)c1ccc(CNC(=O)c2ccc3c4c(cccc24)CC3)cc1 [compound 5, N-[(4-carbamoylphenyl)-methyl]-1,2-dihydroacenaphthylene-5-carboxamide] | increase in the response time |  |
| O=C1CN(C(=O)c2ccc(CNC(=O)c3ccc4c5c(cccc35)CC4)cc2)CCN1 [compound 6, N-{[4-(3-oxopiperazine-1-carbonyl)phenyl]methyl}-1,2-dihydroacenaphthylene-5-carboxamide] | increase in the response time |  |
| CCN(Cc1ccc(C(=O)N(C)C)cc1)C(=O)c1ccc2c3c(cccc13)CC2 [compound 7, N-{[4-(dimethylcarbamoyl)-phenyl]methyl}-N-ethyl-1,2-dihydroacenaphthylene-5-carboxamide] | increase in the response time |  |
| CCNC(=O)c1ccc(CNC(=O)c2ccc3c4c(cccc24)CC3)cc1 [compound 8, N-{[4-(ethylcarbamoyl)-phenyl]methyl}-1,2-dihydroacenaphthylene-5-carboxamide] | increase in the response time |  |
| CN1CC[C@]23c4c5ccc(O)c4O[C@H]2[C@@H](O)C=C[C@H]3[C@H]1C5 [morphine, reference compound] |  | percentage time spent on the hot plate (55° C.) compared to naïve mice ([2]; normal nociception, 1 hour after 0.2 mg/kg compound 1, 0.1 mg/kg morphine, or both, 4 minutes): no significant analgesic response |
